Measured values reported in article PMC11926855, “Photochemistry of Receptor-Bound Flavin Resolved in Living Human Cells by Infrared Spectroscopy” (Journal of the American Chemical Society, 2025).

Columns and labels:
[1] = biological target: T1, pCRY-PHR (Chlamydomonas reinhardtii, UniProt Q42696); assay: light-induced in-cell ATR-FTIR difference spectroscopy (ICIRD); assay type: cell-based; settings: living HEK cells, 37 °C, blue light; noncovalent; oxidized flavin to flavin neutral radical
T1 construct: gene CPH1; photolyase homology region (PHR) without CCT, mCherry fused as reporter; stably transfected HEK cells, also E. coli cells

[2] = biological target: T2, LOV (LOV sensor of aureochrome1a) (Phaeodactylum tricornutum, UniProt A0A140UHJ0, I28V, form not given); assay: as above; assay type: cell-based; settings: living HEK cells, 37 °C, blue light; covalent photoadduct with Cys287 on illumination, noncovalent in dark; also in vitro and E. coli cells
T2 construct: isolated LOV sensor domain without bZIP effector; transiently transfected HEK cells, also E. coli cells and in vitro

[3] = biological target: T3, LOV (LOV sensor of aureochrome1a) (Phaeodactylum tricornutum, UniProt A0A140UHJ0, I28V); assay: light-induced FTIR difference spectroscopy in vitro; assay type: binding; settings: wild type compared with I264V; covalent photoadduct with Cys287 on illumination
T3 construct: isolated LOV sensor domain without bZIP effector; transiently transfected HEK cells, also E. coli cells and in vitro
T3 sequence (A0A140UHJ0 entry or part of it I28V): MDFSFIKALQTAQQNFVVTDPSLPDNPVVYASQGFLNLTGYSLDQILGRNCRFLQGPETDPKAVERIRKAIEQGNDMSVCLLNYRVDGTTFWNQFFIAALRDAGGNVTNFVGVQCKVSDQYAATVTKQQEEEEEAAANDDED

T1 sequence (Q42696 entry or part of it): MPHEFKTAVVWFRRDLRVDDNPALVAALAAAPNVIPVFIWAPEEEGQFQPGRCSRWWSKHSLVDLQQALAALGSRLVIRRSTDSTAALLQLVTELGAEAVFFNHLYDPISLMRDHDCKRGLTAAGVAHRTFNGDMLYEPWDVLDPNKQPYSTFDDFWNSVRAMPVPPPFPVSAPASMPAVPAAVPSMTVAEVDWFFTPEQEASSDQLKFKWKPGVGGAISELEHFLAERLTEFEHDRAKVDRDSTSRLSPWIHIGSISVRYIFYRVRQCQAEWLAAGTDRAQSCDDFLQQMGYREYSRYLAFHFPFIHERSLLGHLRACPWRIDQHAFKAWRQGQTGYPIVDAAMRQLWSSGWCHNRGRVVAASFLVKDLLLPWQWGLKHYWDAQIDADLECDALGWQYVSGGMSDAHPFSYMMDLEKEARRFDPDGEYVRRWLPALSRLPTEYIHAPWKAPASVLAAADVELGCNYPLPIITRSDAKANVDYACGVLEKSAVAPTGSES
T2 sequence (A0A140UHJ0 entry or part of it I28V, form open): as the sequence (A0A140UHJ0 entry or part of it I28V) above

| Structure (SMILES) | light-induced in-cell ATR-FTIR difference spectroscopy (ICIRD) [1] | light-induced in-cell ATR-FTIR difference spectroscopy (ICIRD) [2] | light-induced FTIR difference spectroscopy in vitro [3] |
| --- | --- | --- | --- |
| Cc1cc2nc3c(=O)[nH]c(=O)nc-3n(C[C@H](O)[C@H](O)[C@H](O)COP(=O)(O)OP(=O)(O)OC[C@H]3O[C@@H](n4cnc5c(N)ncnc54)[C@H](O)[C@@H]3O)c2cc1C [flavin adenine dinucleotide] | photoreaction of the oxidized flavin to the flavin neutral radical in pCRY-PHR | – | – |
| Cc1cc2nc3c(=O)[nH]c(=O)nc-3n(C[C@H](O)[C@H](O)[C@H](O)COP(=O)(O)O)c2cc1C [flavin mononucleotide] | – | formation of the cysteine adduct from the oxidized flavin | without altering the mechanism (Figure S6A) |
